From ChEMBL document CHEMBL4715873, “A novel synthetic acanthoic acid analogues and their cytotoxic activity in cholangiocarcinoma cells” (Bioorg Med Chem, 2021)

Columns and labels:
[1] = Cytotoxicity against human KKU-055 cells assessed as growth inhibition incubated for 48 hrs by MTT assay; format: functional, cell-based, KKUM055; details: KKU-M055, 48 h
[2] = Cytotoxicity against human KKU-100 cells assessed as growth inhibition incubated for 48 hrs by MTT assay; format: functional, cell-based; details: KKU100, 48 h
[3] = Cytotoxicity against human KKU-213 cells assessed as growth inhibition incubated for 48 hrs by MTT assay; format: functional, cell-based, KKUM213; details: KKU-M213, 48 h
[4] = Cytotoxicity against human KKU-214 cells assessed as growth inhibition incubated for 48 hrs by MTT assay; format: functional, cell-based, KKUM214; details: KKU-M214, 48 h
[5] = Cytotoxicity against human PBMC assessed as growth inhibition incubated for 48 hrs by MTT assay
[6] = Potency index, ratio of acid IC50 to compound IC50 for cytotoxicity against human KKU-213 cells assessed as growth inhibition incubated for 48 hrs by MTT assay; format: functional, KKUM213

Row | SMILES | IC50 [1] | IC50 [2] | IC50 [3] | IC50 [4] | IC50 [5] | Ratio IC50 [6]
1 | C=C[C@@]1(C)CC=C2[C@@H](CC[C@@H]3[C@](C)(C(=O)OCc4ccc(F)cc4)CCC[C@@]23C)C1 | > 50 µM | > 50 µM | 38 µM | > 50 µM |  | 
2 | C=C[C@@]1(C)CC=C2[C@@H](CC[C@@H]3[C@](C)(C(=O)OCc4ccc(C)cc4)CCC[C@@]23C)C1 | > 50 µM | > 50 µM | > 50 µM | > 50 µM |  | 
3 | C=CCOC(=O)[C@]1(C)CCC[C@@]2(C)C3=CC[C@](C)(C=C)C[C@@H]3CC[C@H]12 | > 50 µM | > 50 µM | > 50 µM | > 50 µM |  | 
4 | C=C[C@@]1(C)CC=C2[C@@H](CC[C@@H]3[C@](C)(C(=O)OCc4ccc(Br)cc4)CCC[C@@]23C)C1 | > 50 µM | > 50 µM | 41 µM | 41 µM |  | 
5 | C=C[C@@]1(C)CC=C2[C@@H](CC[C@@H]3[C@](C)(C(=O)OCc4cccc(F)c4)CCC[C@@]23C)C1 | 41 µM | > 50 µM | 28 µM | > 50 µM | 163 µM | 
6 | C=C[C@@]1(C)CC=C2[C@@H](CC[C@@H]3[C@](C)(C(=O)OCc4cn(Cc5ccc(F)cc5)nn4)CCC[C@@]23C)C1 | > 50 µM | > 50 µM | > 50 µM | > 50 µM |  | 
7 | C=C[C@@]1(C)CC=C2[C@@H](CC[C@@H]3[C@](C)(C(=O)OCCCC)CCC[C@@]23C)C1 | 49 µM | > 50 µM | 37 µM | > 50 µM |  | 
8 | C=C[C@@]1(C)CC=C2[C@@H](CC[C@@H]3[C@](C)(C(=O)OCc4cn(Cc5ccccc5)nn4)CCC[C@@]23C)C1 | 47 µM | > 50 µM | 40 µM | 41 µM |  | 
9 | C=C[C@@]1(C)CC=C2[C@@H](CC[C@@H]3[C@](C)(C(=O)OCc4cn(Cc5ccc([N+](=O)[O-])cc5)nn4)CCC[C@@]23C)C1 | 33 µM | > 50 µM | 18 µM | 21 µM | > 200 µM | 8
10 | O=C(NC1=CC(=O)[C@H]2O[C@H]2[C@H]1O)c1ccccc1O [DEHYDROXYMETHYLEPOXYQUINOMICIN] |  |  | 19 µM | 19 µM |  | 
11 | C=C[C@@]1(C)CC=C2[C@@H](CC[C@@H]3[C@](C)(C(=O)OCc4ccc(Cl)cc4)CCC[C@@]23C)C1 | > 50 µM | > 50 µM | > 50 µM | > 50 µM |  | 
12 | C=C[C@@]1(C)CC=C2[C@@H](CC[C@@H]3[C@](C)(C(=O)OCc4ccccc4F)CCC[C@@]23C)C1 | 47 µM | > 50 µM | 35 µM | > 50 µM |  | 
13 | C#CCOC(=O)[C@]1(C)CCC[C@@]2(C)C3=CC[C@](C)(C=C)C[C@@H]3CC[C@H]12 | 37 µM | > 50 µM | 31 µM | 34 µM | 71 µM | 
14 | C=C[C@@]1(C)CC=C2[C@@H](CC[C@@H]3[C@](C)(C(=O)OCCCCCCCC)CCC[C@@]23C)C1 | > 50 µM | > 50 µM | > 50 µM | > 50 µM |  | 
15 | C=C[C@@]1(C)CC=C2[C@@H](CC[C@@H]3[C@](C)(C(=O)OCc4cn(CCCCCCCC)nn4)CCC[C@@]23C)C1 | 48 µM | > 50 µM | 37 µM | 38 µM |  | 
16 | C=C[C@@]1(C)CC=C2[C@@H](CC[C@@H]3[C@](C)(C(=O)OCc4cn(Cc5ccc(OC)cc5)nn4)CCC[C@@]23C)C1 | > 50 µM | > 50 µM | > 50 µM | > 50 µM |  | 
17 | C=C[C@@]1(C)CC=C2[C@@H](CC[C@@H]3[C@](C)(C(=O)OCc4cn(Cc5ccc(Br)cc5)nn4)CCC[C@@]23C)C1 | > 50 µM | > 50 µM | > 50 µM | > 50 µM |  | 
18 | C=C[C@@]1(C)CC=C2[C@@H](CC[C@@H]3[C@](C)(C(=O)OCc4cn(Cc5ccc(Cl)cc5)nn4)CCC[C@@]23C)C1 | > 50 µM | > 50 µM | > 50 µM | 39 µM |  | 
19 | C=C[C@@]1(C)CC=C2[C@@H](CC[C@@H]3[C@](C)(C(=O)OCc4ccc([N+](=O)[O-])cc4)CCC[C@@]23C)C1 | > 50 µM | > 50 µM | > 50 µM | > 50 µM |  | 
20 | C=C[C@@]1(C)CC=C2[C@@H](CC[C@@H]3[C@](C)(C(=O)OCc4ccc(OC)cc4)CCC[C@@]23C)C1 | > 50 µM | > 50 µM | > 50 µM | > 50 µM |  | 
21 | C=C[C@@]1(C)CC=C2[C@@H](CC[C@@H]3[C@](C)(C(=O)O)CCC[C@@]23C)C1 | 120 µM | 174 µM | 149 µM | 168 µM |  | 
22 | C=C[C@@]1(C)CC=C2[C@@H](CC[C@@H]3[C@](C)(C(=O)OCc4ccccc4)CCC[C@@]23C)C1 | > 50 µM | > 50 µM | > 50 µM | > 50 µM |  | 
23 | C=C[C@@]1(C)CC=C2[C@@H](CC[C@@H]3[C@](C)(C(=O)OCc4cn(Cc5cccc(F)c5)nn4)CCC[C@@]23C)C1 | > 50 µM | > 50 µM | > 50 µM | > 50 µM |  | 
24 | C=C[C@@]1(C)CC=C2[C@@H](CC[C@@H]3[C@](C)(C(=O)OCc4cn(Cc5ccccc5F)nn4)CCC[C@@]23C)C1 | > 50 µM | > 50 µM | > 50 µM | > 50 µM |  | 
25 | C=C[C@@]1(C)CC=C2[C@@H](CC[C@@H]3[C@](C)(C(=O)OCc4cn(Cc5ccc(C)cc5)nn4)CCC[C@@]23C)C1 | > 50 µM | > 50 µM | 47 µM | 39 µM |  | 
